Measurements published in paper PMC11243638, “Enhanced Antioxidant, Anti-Aging, Anti-Tyrosinase, and Anti-Inflammatory Properties of Vanda coerulea Griff. Ex Lindl. Protocorm through Elicitations with Chitosan” (Plants, 2024).
Marks after values point to notes of the source that are not given here.

Columns and labels:
[1] = DPPH radical scavenging assay; type: biochemical; conditions: mean ± SD, triplicate; ND = not determined due to low potency
Experimental: The capability of the extracts derived from the adult V. coerulea plant and its protocorms to scavenge DPPH radicals was evaluated through a DPPH assay, which was modified from the methods described by Brem et al. (2004). Initially, 20 µL of the sample solution was combined with 180 µL of a DPPH solution, prepared by dissolving […] DPPH in DI water. After incubating the resulting mixture in darkness at room temperature for 30 min, the absorbance was measured at 520 nm using a multimode microplate reader (BMG Labtech GmbH, Ortenberg, Germany). […] Various concentrations of each extract were evaluated, and their DPPH inhibitions were plotted against their logarithmic concentrations to generate dose–response curves. […] L-ascorbic acid was used as the positive control. The analysis was performed in triplicate.

[2] = Ferric-reducing antioxidant power (FRAP) assay; type: biochemical; conditions: mean ± SD, triplicate
Experimental: The capability of the extracts derived from the adult V. coerulea plant and its protocorms to reduce ferric was evaluated through a FRAP assay, which was modified from the methods described by Saeio et al. (2011). Initially, 20 µL of the sample solution was combined with 180 µL of the FRAP solution, prepared by mixing 0.3 M acetate buffer pH 3.6, 10 mM TPTZ in 40 mM HCl solution and 20 mM ferric chloride solution. After incubating the resulting mixture at room temperature for 5 min, the absorbance was measured at 595 nm using a multimode microplate reader (BMG Labtech GmbH, Ortenberg, Germany). The findings were then expressed as the percentage of ferric reducing ability, calculated according to the subsequent equation:Ferric reducing abilities (%) = [(a − b)/a] × 100,(2) where a is the UV absorbance of the combination without a sample, while b is the UV absorbance of the combination with a sample. Various concentrations of each extract were evaluated, and their ferric reducing abilities were plotted against their logarithmic concentrations to generate dose–response curves. […] L-ascorbic acid was used as the positive control. The analysis was performed in triplicate.

[3] = molecular target: collagenase from Clostridium histolyticum; assay: Collagenase (MMP-1) inhibition, spectrophotometric assay with FALGPA; type: biochemical; conditions: mean ± SD, triplicate; ND = not determined due to low potency
Experimental: The capability of the extracts derived from the adult V. coerulea plant and its protocorms to inhibit the MMP-1 activities was evaluated through a spectrophotometric assay, which was modified from the methods described by Thring et al. (2009). Initially, an MMP-1 solution at a concentration of 0.1 units/mL was prepared, comprising MMP-1 sourced from C. histolyticum, along with 400 mM NaCl, 10 mM CaCl2, and 50 mM tricine buffer pH 7.5. Subsequently, 20 µL of the sample solution was combined with 20 µL of the MMP-1 solution and 80 µL of Tricine buffer pH 7.5. […] Immediately, the absorbance was measured kinetically at 340 nm for a duration of 20 min using a multimode microplate reader (BMG Labtech GmbH, Ortenberg, Germany). The findings were then expressed as the percentage of MMP-1 inhibition, calculated according to the subsequent equation:MMP-1 inhibition (%) = [(a − b)/a] × 100,(3) where a is the reaction rate of the combination without a sample, while b is the reaction rate of the combination with a sample. Various concentrations of each extract were evaluated, and their MMP-1 inhibitions were plotted against their logarithmic concentrations to generate dose–response curves. The IC50 values were calculated from the curves using GraphPad Prism (version 8.0.2, GraphPad Software, Boston, MA, USA). […]

[4] = molecular target: T1, porcine pancreatic elastase (Sus scrofa, UniProt P00772); assay: Elastase inhibition, spectrophotometric assay; type: biochemical; conditions: mean ± SD, triplicate; ND = not determined due to low potency
T1 construct: purchased Sigma-Aldrich; host or cells: porcine pancreas
T1 sequence (P00772 27-266): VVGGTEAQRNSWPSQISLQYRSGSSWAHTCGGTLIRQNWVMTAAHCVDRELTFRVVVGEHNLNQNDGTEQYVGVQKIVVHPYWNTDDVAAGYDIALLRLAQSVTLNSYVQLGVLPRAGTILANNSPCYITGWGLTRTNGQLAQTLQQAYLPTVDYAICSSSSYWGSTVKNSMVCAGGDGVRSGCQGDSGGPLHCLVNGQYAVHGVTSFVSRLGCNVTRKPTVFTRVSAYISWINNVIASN
Experimental: The capability of the extracts derived from the adult V. coerulea plant and its protocorms to inhibit elastase activities was evaluated through a spectrophotometric assay, which was modified from the methods described by Thring et al. (2009). Initially, an elastase solution at a concentration of 0.03 units/mL was prepared, comprising elastase sourced from porcine pancreas, along with 0.2 M Tris-HCl buffer pH 8.0. Subsequently, 10 µL of the sample solution was combined with 40 µL of the elastase solution. After the resulting mixture was incubated for 15 min at ambient temperature, 100 µL of 1.6 mM AAAVPN in tris HCl buffer pH 8.0 was introduced to initiate the enzymatic reaction. Immediately, the absorbance was measured kinetically at 410 nm for a duration of 20 min using a multimode microplate reader (BMG Labtech GmbH, Ortenberg, Germany). […] Various concentrations of each extract were evaluated, and their elastase inhibitions were plotted against their logarithmic concentrations to generate dose–response curves. The IC50 values were calculated from the curves using GraphPad Prism (version 8.0.2, GraphPad Software, Boston, MA, USA). […] was used as the positive control. The analysis was performed in triplicate.

[5] = test system: chorioallantoic membrane of fertilized hen eggs; assay: Hen's egg-chorioallantoic membrane (HET-CAM) irritation test; conditions: 1% w/v, positive control
Experimental: The irritation potency of the extracts derived from the adult V. coerulea plant and its protocorms was evaluated through a HET-CAM test, which was previously described by Luepke and Kemper (1986). The fertilized black hen eggs from the Pradu Hang Dam Chiang Mai breed aged between 7 and 9 days were used in the HET-CAM test. As the embryos were in the early stages of development, ethical approval was not required. Typically, hen eggs require 21 days of incubation, and the fertilized eggs aged between 7 to 9 days, which was less than halfway through their incubation cycle, were not considered animals. Prior to the test, the eggshell above the air cell was cracked open, and the inner membrane was moistened with a normal saline solution. […] The duration until the first appearance of each irritation sign was meticulously monitored and recorded in seconds, which enabled the subsequent computation of the irritation score (IS) using the following equation:IS = [(301 − t(h))/300] × 5 + [(301 − t(l))/300] × 7 + [(301 − t(c))/300] × 9,(8) where t(h) is the time of the first appearance of hemorrhage in seconds, t(l) is the time of the first appearance of vascular lysis in seconds, and t(c) is the first appearance of vascular coagulation in seconds. […]

SMILES	IC50 DPPH Inhibition [1]	IC50 Ferric Reducing Capacity [2]	IC50 Collagenase Inhibition [3]	IC50 Elastase Inhibition [4]	IC50 [4] [µM]	Irritation Level [5]	Irritation Score (IS) [5]
O=C1O[C@H]([C@@H](O)CO)C(O)=C1O [AS, ascorbic acid]	3.5 ± 2.9 ^a µg/mL	2.4 ± 0.7 ^a µg/mL	–	–	–	–	–
O=C(O[C@@H]1Cc2c(O)cc(O)cc2O[C@@H]1c1cc(O)c(O)c(O)c1)c1cc(O)c(O)c(O)c1 [EGCG, epigallocatechin gallate]	–	–	16.9 ± 3.2 ^b µg/mL	0.1 ± 0.0 ^a µg/mL	–	–	–
C[C@@H]1O[C@@H](OC[C@H]2O[C@@H](Oc3c(-c4ccc(O)c(O)c4)oc4cc(O)cc(O)c4c3=O)[C@H](O)[C@@H](O)[C@@H]2O)[C@H](O)[C@H](O)[C@H]1O [RT, rutin]	3.2 ± 2.7 ^a µg/mL	12.9 ± 2.0 ^b µg/mL	7.6 ± 3.4 ^a µg/mL	–	17.2	–	–
CCCCCCCCCCCCOS(=O)(=O)[O-].[Na+] [SLS, sodium lauryl sulfate]	–	–	–	–	–	Severe irritation (9.0–21.0 for severe irritation)	15.13 ± 0.3
